Source: patent US20230053540A1, “TREATMENT OF LIVER INJURY” (Massachusetts Institute of Technology, priority 2019, published 2023)

Tested on: hepatocytes
Test: Seq-Well scRNA-Seq of hepatocytes after APAP overdose (signature scores, DEG vs untreated)
Assay type: in vivo, mouse
Settings: cluster A48 (APAP, 48 h)

CC(=O)Nc1ccc(O)cc1 [APAP, acetaminophen]
avg_logFC Cyp4a10: 1.157 | avg_logFC Cyp4a14: 1.488 | avg_logFC Dbp: 0.2929 | avg_logFC Dcxr: 0.3518 | avg_logFC Ddb1: 0.3373 | avg_logFC Decr1: 0.5941 | avg_logFC Decr2: 0.4308 | avg_logFC Dhrs4: 0.342 | avg_logFC Ech1: 0.5251 | avg_logFC Echs1: 0.4926 | avg_logFC Eef1d: 0.2745 | avg_logFC Ephx2: 0.4864 | avg_logFC Esrra: 0.2518 | avg_logFC Etfb: 0.3542 | avg_logFC Etnppl: 0.6045 | avg_logFC F2: 0.3767 | avg_logFC F10: 0.3879 | avg_logFC F12: 0.385 | avg_logFC Fah: 0.3039 | avg_logFC Fam195a: 0.3544 | avg_logFC Fcgrt: 0.4314 | avg_logFC Fth1: 0.4342 | avg_logFC G0s2: 0.4232 | avg_logFC Gabarap: 0.4376 | avg_logFC Galk1: 0.2686 | avg_logFC Gcdh: 0.306 | avg_logFC Gchfr: 0.3676 | avg_logFC Ggnbp2: 0.2821 | avg_logFC Glrx5: 0.3308 | avg_logFC Gltscr2: 0.3759 | avg_logFC Gm6484: 0.3759 | avg_logFC Gsta2: 0.2734 | avg_logFC Gsto1: 0.3392 | avg_logFC Gstt2: 0.3234 | avg_logFC Gstt3: 0.3834 | avg_logFC Gys2: 0.4182 | avg_logFC Hdac11: 0.3963 | avg_logFC Herpud1: 0.5965 | avg_logFC Hmgcl: 0.619 | avg_logFC Hmgcs2: 0.8196 | avg_logFC Hrg: 0.436 | avg_logFC Hsd17b10: 0.4452 | avg_logFC Hsd17b13: 0.6427 | avg_logFC Ifnar2: 0.2833 | avg_logFC Khk: 0.5338 | avg_logFC Lamp1: 0.3377 | avg_logFC Lcat: 0.4733 | avg_logFC Lims2: 0.3931 | avg_logFC Lipa: 0.3277 | avg_logFC Mat1a: 0.6585 | avg_logFC Mfsd2a: 0.5827 | avg_logFC Mgll: 0.3192 | avg_logFC Mia3: 0.3374 | avg_logFC Mlycd: 0.4637 | avg_logFC Mrpl43: 0.2692 | avg_logFC Ndrg2: 0.3498 | avg_logFC Ndufb2: 0.407 | avg_logFC Ndufb10: 0.3471 | avg_logFC Ndufs7: 0.2882 | avg_logFC Ninj1: 0.3542 | avg_logFC Nr1i3: 0.5739 | avg_logFC Oaf: 0.5619 | avg_logFC Pabpc1: 0.5116 | avg_logFC Park7: 0.403 | avg_logFC Pbld1: 0.3989 | avg_logFC Pbld2: 0.3619 | avg_logFC Pigr: 0.4224 | avg_logFC Pitpnb: 0.2726 | avg_logFC Plin5: 0.3264 | avg_logFC Pnpla2: 0.3457 | avg_logFC Ppara: 0.3442 | avg_logFC Prodh2: 0.5179 | avg_logFC Rabac1: 0.3343 | avg_logFC Rbp4: 0.5139 | avg_logFC Rdh7: 0.5575 | avg_logFC Reep6: 0.5902 | avg_logFC Retsat: 0.8734 | avg_logFC Rgs16: 0.3803 | avg_logFC Rpl4: 0.3744 | avg_logFC Rpl38: 0.3455 | avg_logFC Scand1: 0.2581 | avg_logFC Sco2: 0.317 | avg_logFC Sdhc: 0.4334 | avg_logFC Sdhd: 0.4849 | avg_logFC Sec14l2: 0.389 | avg_logFC Serpina1d: 0.3563 | avg_logFC Serpinf1: 0.3954 | avg_logFC Serping1: 0.4435 | avg_logFC Sh3glb1: 0.3259 | avg_logFC Shmt1: 0.3827 | avg_logFC Slc10a1: 0.4562 | avg_logFC Slc25a10: 0.4539 | avg_logFC Slc25a20: 0.4208 | avg_logFC Slc25a47: 0.5249 | avg_logFC Slc27a2: 0.3146 | avg_logFC Slc27a5: 0.41 | avg_logFC Slc37a4: 0.4211 | avg_logFC Slc40a1: 0.332 | avg_logFC Slco1a4: 0.5466 | avg_logFC Smlr1: 0.3065 | avg_logFC Snord118: 0.5286
